The target of assay [1] is T1, MTHFD1 recombinant human enzyme (Homo sapiens, UniProt P11586).
T1 sequence (P11586 2-291 limits assumed): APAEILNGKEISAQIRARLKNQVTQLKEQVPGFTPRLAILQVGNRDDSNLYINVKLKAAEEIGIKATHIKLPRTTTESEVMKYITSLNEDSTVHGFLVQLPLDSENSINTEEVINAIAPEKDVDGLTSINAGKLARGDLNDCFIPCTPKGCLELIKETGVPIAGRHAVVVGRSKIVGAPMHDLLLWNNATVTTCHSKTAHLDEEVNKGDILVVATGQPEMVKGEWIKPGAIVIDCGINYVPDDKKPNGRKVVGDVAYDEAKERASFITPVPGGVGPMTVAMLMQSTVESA
As to the kind of experiment: MTHFD1 inhibition assay (NAD(P)H-Glo luminescence). To be noted: MTHFD1 IC50, recombinant human enzyme 200 nM, NADP, band.

Assay [2] addresses T2, MTHFD2 recombinant human enzyme (Homo sapiens, UniProt P13995).
T2 sequence (P13995 36-350): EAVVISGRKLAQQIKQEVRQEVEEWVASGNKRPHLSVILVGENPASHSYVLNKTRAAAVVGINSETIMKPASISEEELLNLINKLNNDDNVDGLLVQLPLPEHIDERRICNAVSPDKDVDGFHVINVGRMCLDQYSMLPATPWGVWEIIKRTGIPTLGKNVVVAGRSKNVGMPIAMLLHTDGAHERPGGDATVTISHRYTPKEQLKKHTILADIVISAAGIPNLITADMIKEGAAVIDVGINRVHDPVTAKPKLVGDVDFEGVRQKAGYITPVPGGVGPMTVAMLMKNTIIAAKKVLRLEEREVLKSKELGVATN
The assay is described as follows: MTHFD2 inhibition assay (NAD(P)H-Glo luminescence). The following applies: for MTHFD1/MTHFD2 IC50 ratio: selectivity of MTHFD2 inhibition over MTHFD1, band.

With `COC[C@H]1CN(c2cc(C)c3c4c(c(=O)oc3c2C)CN(C(=O)c2cc(OC3CCCC3)c(C(=O)NS(=O)(=O)N(C)C)c(N3CCCC3)c2)CC4)CCN1C` [Example 127, (R)-2-(cyclopentyloxy)-N-(N,N-dimethylsulfamoyl)-4-(8-(3-(methoxymethyl)-4-methylpiperazin-1-yl)-7,10-dimethyl-5-oxo-1,3,4,5-tetrahydro-2H-chromeno[3,4-c]pyridine-3-carbonyl)-6-(pyrrolidin-1-yl)benzamide], in assay [1], the IC50 (as a rule, the concentration that gives 50% inhibition) was 0.1 to 1 µM. In addition, in assay [2], the IC50 lay in the range of 0.01 to 0.1 µM and the “MTHFD1/MTHFD2 IC50 ratio” value is “H (>9.0 to 30)”.
In the case of `CCOc1c(C(=O)NS(=O)(=O)N2CC3CCC(C3)C2)ccc(C(=O)N2CCc3c(c(=O)oc4c(C)c(N5CCN(C)[C@@H](COC)C5)ccc34)C2)c1F` [Example 237], the IC50 in assay [1] and in assay [2] was 0.01 to 0.1 µM each time. The “MTHFD1/MTHFD2 IC50 ratio” value in assay [2] is recorded as “F (<3)”.
Consider `COC[C@H]1CN(c2cc(Cl)c3c4c(c(=O)oc3c2C)CN(C(=O)c2cc(N(C)C)c(C(=O)NS(=O)(=O)N3CCC[C@@H]3COC)cc2F)CC4)CCN1C` [Example 290, 4-(10-chloro-8-((R)-3-(methoxymethyl)-4-methylpiperazin-1-yl)-7-methyl-5-oxo-1,3,4,5-tetrahydro-2H-chromeno[3,4-c]pyridine-3-carbonyl)-2-(dimethylamino)-5-fluoro-N-(((R)-2-(methoxymethyl)pyrrolidin-1-yl)sulfonyl)benzamide], for which, in assay [1], the IC50 fell in the range of 0.1 to 1 µM. In addition, in assay [2], the IC50 lay within 0.01 to 0.1 µM and the “MTHFD1/MTHFD2 IC50 ratio” value was “J (>30)”.
The corresponding values for `COC[C@H]1CN(c2cc(C)c3c4c(c(=O)oc3c2C)CN(C(=O)c2ccc(C(=O)NS(=O)(=O)C3(C)CC3)c(N(C)C)c2)CC4)CCN1C` [Example 79, (R)-2-(dimethylamino)-4-(8-(3-(methoxymethyl)-4-methylpiperazin-1-yl)-7,10-dimethyl-5-oxo-1,3,4,5-tetrahydro-2H-chromeno[3,4-c]pyridine-3-carbonyl)-N-((1-methylcyclopropyl)sulfonyl)benzamide] are 0.01 to 0.1 µM, 0.001 to 0.01 µM and “H (>9.0 to 30)”.
The corresponding values for `COC[C@H]1CN(c2ccc3c4c(c(=O)oc3c2Cl)CN(C(=O)c2ccc(C(=O)NS(=O)(=O)C3(C)CC3)c(OC3CCCC3)c2F)CC4)CCN1C` [Example 57, (R)-4-(7-chloro-8-(3-(methoxymethyl)-4-methylpiperazin-1-yl)-5-oxo-1,3,4,5-tetrahydro-2H-chromeno[3,4-c]pyridine-3-carbonyl)-2-(cyclopentyloxy)-3-fluoro-N-((1-methylcyclopropyl)sulfonyl)benzamide] are 0.001 to 0.01 µM, 0.001 to 0.01 µM and “F (<3)”.
As to `COC[C@H]1CN(c2cc(C)c3c4c(c(=O)oc3c2C)CN(C(=O)c2ccc(C(=O)NS(=O)(=O)C3(C)CC3)c(N3CCC3)c2)CC4)CCN1C` [Example 91, (R)-2-(azetidin-1-yl)-4-(8-(3-(methoxymethyl)-4-methylpiperazin-1-yl)-7,10-dimethyl-5-oxo-1,3,4,5-tetrahydro-2H-chromeno[3,4-c]pyridine-3-carbonyl)-N-((1-methylcyclopropyl)sulfonyl)benzamide], the IC50 in assay [1] and in assay [2] was 0.001 to 0.01 µM throughout. The “MTHFD1/MTHFD2 IC50 ratio” value in assay [2] is on record as “G (^ 3 to 9.0)”.
With `COC[C@H]1CN(c2ccc3c4c(c(=O)oc3c2C)CN(C(=O)c2cc(N(C)C)c(C(=O)NS(=O)(=O)N3C5CCC3CC5)cc2F)CC4)CCN1C` [Example 188, (R)-N-((7-azabicyclo[2.2.1]heptan-7-yl)sulfonyl)-2-(dimethylamino)-5-fluoro-4-(8-(3-(methoxymethyl)-4-methylpiperazin-1-yl)-7-methyl-5-oxo-1,3,4,5-tetrahydro-2H-chromeno[3,4-c]pyridine-3-carbonyl)benzamide], the IC50 in assay [1] lay within 1 to 5 µM. In assay [2], the IC50 lay within 0.01 to 0.1 µM and the “MTHFD1/MTHFD2 IC50 ratio” value is on record as “H (>9.0 to 30)”.
In the case of `COC[C@H]1CN(c2cc(C)c3c4c(c(=O)oc3c2C)CN(C(=O)c2cc(N3CCCC3)c(C(=O)NS(=O)(=O)N3CCCC3)cc2F)CC4)CCN1C` [Example 141, (R)-5-fluoro-4-(8-(3-(methoxymethyl)-4-methylpiperazin-1-yl)-7,10-dimethyl-5-oxo-1,3,4,5-tetrahydro-2H-chromeno[3,4-c]pyridine-3-carbonyl)-2-(pyrrolidin-1-yl)-N-(pyrrolidin-1-ylsulfonyl)benzamide], the concentration for half-maximal inhibition (IC50) in assay [1] is 0.01 to 0.1 µM. In assay [2], the IC50 lay within 0.01 to 0.1 µM and the “MTHFD1/MTHFD2 IC50 ratio” value is reported as “F (<3)”.
On to `COC[C@H]1CN(c2ccc3c4c(c(=O)oc3c2C)CN(C(=O)c2ccc(C(=O)NS(=O)(=O)N(C)C)c(N3C5CCC3CC5)c2)CC4)CCN1C` [Example 16, (R)-2-(7-azabicyclo[2.2.1]heptan-7-yl)-N-(N,N-dimethylsulfamoyl)-4-(8-(3-(methoxymethyl)-4-methylpiperazin-1-yl)-7-methyl-5-oxo-1,3,4,5-tetrahydro-2H-chromeno[3,4-c]pyridine-3-carbonyl)benzamide], for which the IC50 in assay [1] and in assay [2] was 0.001 to 0.01 µM each time. Further, the “MTHFD1/MTHFD2 IC50 ratio” value in assay [2] was “F (<3)”.
Consider `COC[C@H]1CN(c2cc(C)c3c4c(c(=O)oc3c2C)CN(C(=O)c2ccc(C(=O)NS(=O)(=O)C3(C)CC3)c(N3CCC(C)(C)C3)c2)CC4)CCN1C` [Example 87, (R)-2-(3,3-dimethylpyrrolidin-1-yl)-4-(8-(3-(methoxymethyl)-4-methylpiperazin-1-yl)-7,10-dimethyl-5-oxo-1,3,4,5-tetrahydro-2H-chromeno[3,4-c]pyridine-3-carbonyl)-N-((1-methylcyclopropyl)sulfonyl)benzamide], for which the figures for the IC50 in assay [1] and in assay [2] were 0.01 to 0.1 µM and 0.001 to 0.01 µM, respectively. Besides, the “MTHFD1/MTHFD2 IC50 ratio” value in assay [2] is on record as “G (^ 3 to 9.0)”.
With `COC[C@H]1CN(c2cc(Cl)c3c4c(c(=O)oc3c2C)CN(C(=O)c2cc(N(C)C)c(C(=O)NS(=O)(=O)N3CCC5(CC5)C3)cc2F)CC4)CCN1C` [Example 274, (R)-N-((5-azaspiro[2.4]heptan-5-yl)sulfonyl)-4-(10-chloro-8-(3-(methoxymethyl)-4-methylpiperazin-1-yl)-7-methyl-5-oxo-1,3,4,5-tetrahydro-2H-chromeno[3,4-c]pyridine-3-carbonyl)-2-(dimethylamino)-5-fluorobenzamide], the results for the IC50 in assay [1] and in assay [2] were 0.1 to 1 µM and 0.01 to 0.1 µM, respectively. Moreover, in assay [2], the “MTHFD1/MTHFD2 IC50 ratio” value is recorded as “H (>9.0 to 30)”.
In the case of `COC[C@H]1CN(c2cc(C)c3c4c(c(=O)oc3c2)CN(C(=O)c2ccc(C(=O)NS(=O)(=O)N3CCCC3)c(OC3CCC3)c2F)CC4)CCN1C` [Example 186, (R)-2-cyclobutoxy-3-fluoro-4-(8-(3-(methoxymethyl)-4-methylpiperazin-1-yl)-10-methyl-5-oxo-1,3,4,5-tetrahydro-2H-chromeno[3,4-c]pyridine-3-carbonyl)-N-(pyrrolidin-1-ylsulfonyl)benzamide], the IC50 in assay [1] and in assay [2] was 0.1 to 1 µM each time. Also, the “MTHFD1/MTHFD2 IC50 ratio” value in assay [2] is “F (<3)”.
In the case of `COC[C@H]1CN(c2ccc3c4c(c(=O)oc3c2)CN(C(=O)c2ccc(C(=O)NS(=O)(=O)N3CCCC3)c(OC3CCC3)c2F)CC4)CCN1C` [Example 182, (R)-2-cyclobutoxy-3-fluoro-4-(8-(3-(methoxymethyl)-4-methylpiperazin-1-yl)-5-oxo-1,3,4,5-tetrahydro-2H-chromeno[3,4-c]pyridine-3-carbonyl)-N-(pyrrolidin-1-ylsulfonyl)benzamide], the IC50 is 1 to 5 µM in assay [1] and 0.1 to 1 µM in assay [2]. Moreover, in assay [2], the “MTHFD1/MTHFD2 IC50 ratio” value is “G (^ 3 to 9.0)”.
The corresponding values for `COC[C@H]1CN(c2ccc3c4c(c(=O)oc3c2C)CN(C(=O)c2cc(Cl)c(C(=O)NS(=O)(=O)N(C)C)c(N3C5CCC3CC5)c2)CC4)CCN1C` [Example 80, (R)-2-(7-azabicyclo[2.2.1]heptan-7-yl)-6-chloro-N-(N,N-dimethylsulfamoyl)-4-(8-(3-(methoxymethyl)-4-methylpiperazin-1-yl)-7-methyl-5-oxo-1,3,4,5-tetrahydro-2H-chromeno[3,4-c]pyridine-3-carbonyl)benzamide] are 0.01 to 0.1 µM, 0.01 to 0.1 µM and “G (^ 3 to 9.0)”.
In the case of `COC[C@H]1CN(c2ccc3c4c(c(=O)oc3c2)CN(C(=O)c2cc(N(C)C)c(C(=O)NS(=O)(=O)N3C5CCC3CC5)cc2F)CC4)CCN1C` [Example 191, (R)-N-((7-azabicyclo[2.2.1]heptan-7-yl)sulfonyl)-2-(dimethylamino)-5-fluoro-4-(8-(3-(methoxymethyl)-4-methylpiperazin-1-yl)-5-oxo-1,3,4,5-tetrahydro-2H-chromeno[3,4-c]pyridine-3-carbonyl)benzamide], the IC50 in assay [1] is over 5 µM. In assay [2], the IC50 lay within 0.1 to 1 µM and the “MTHFD1/MTHFD2 IC50 ratio” value was “G (^ 3 to 9.0)”.

These data come from patent US12662489B2 (Sitryx Therapeutics Limited, priority 2023, dated 2026).
